The target in the assay is T1, partially purified telomerase from a nuclear extract of HEK293 cells (Homo sapiens, UniProt O14746).
T1 construct: partially purified telomerase from a nuclear extract of HEK293 cells; endogenous in cells; host or cells: HEK293 cells, nuclear extract, partially purified
Kind of assay: In vitro telomerase inhibition, membrane hybridization method (U.S. Pat. No. 5,760,062). The assay is classed as biochemical. The following applies: for residual activity of in vitro telomerase activity (in parenthesis): in the presence of the compound at a concentration of 10 μm; for IC50: partially purified telomerase from nuclear extract of HEK293 cells. How it is done: Alternatively, telomerase inhibitory activity of the compounds was measured in accordance with a known method (U.S. Pat. No. 5,760,062). That is, a dimethyl sulfoxide (DMSO) solution of each agent was mixed with partially purified telomerase from a nuclear extract of HEK293 cells and incubated in the presence of an oligodeoxynucleotide to be used as the substrate and deoxynucleotide triphosphate. The obtained reacted product (DNA having a telomere sequence) was adsorbed on a membrane, and hybridization was carried out using a labeled oligonucleotide probe having a sequence complementary to the telomere sequence. The inhibition ratio was calculated based on the ratio of the signal of label on the membrane in the presence of the agent to the signal of label in the absence of the agent (control). Also, concentration of each agent which inhibits 50% of the enzyme activity based on the control was used as IC50.

T1 sequence (O14746 whole entry): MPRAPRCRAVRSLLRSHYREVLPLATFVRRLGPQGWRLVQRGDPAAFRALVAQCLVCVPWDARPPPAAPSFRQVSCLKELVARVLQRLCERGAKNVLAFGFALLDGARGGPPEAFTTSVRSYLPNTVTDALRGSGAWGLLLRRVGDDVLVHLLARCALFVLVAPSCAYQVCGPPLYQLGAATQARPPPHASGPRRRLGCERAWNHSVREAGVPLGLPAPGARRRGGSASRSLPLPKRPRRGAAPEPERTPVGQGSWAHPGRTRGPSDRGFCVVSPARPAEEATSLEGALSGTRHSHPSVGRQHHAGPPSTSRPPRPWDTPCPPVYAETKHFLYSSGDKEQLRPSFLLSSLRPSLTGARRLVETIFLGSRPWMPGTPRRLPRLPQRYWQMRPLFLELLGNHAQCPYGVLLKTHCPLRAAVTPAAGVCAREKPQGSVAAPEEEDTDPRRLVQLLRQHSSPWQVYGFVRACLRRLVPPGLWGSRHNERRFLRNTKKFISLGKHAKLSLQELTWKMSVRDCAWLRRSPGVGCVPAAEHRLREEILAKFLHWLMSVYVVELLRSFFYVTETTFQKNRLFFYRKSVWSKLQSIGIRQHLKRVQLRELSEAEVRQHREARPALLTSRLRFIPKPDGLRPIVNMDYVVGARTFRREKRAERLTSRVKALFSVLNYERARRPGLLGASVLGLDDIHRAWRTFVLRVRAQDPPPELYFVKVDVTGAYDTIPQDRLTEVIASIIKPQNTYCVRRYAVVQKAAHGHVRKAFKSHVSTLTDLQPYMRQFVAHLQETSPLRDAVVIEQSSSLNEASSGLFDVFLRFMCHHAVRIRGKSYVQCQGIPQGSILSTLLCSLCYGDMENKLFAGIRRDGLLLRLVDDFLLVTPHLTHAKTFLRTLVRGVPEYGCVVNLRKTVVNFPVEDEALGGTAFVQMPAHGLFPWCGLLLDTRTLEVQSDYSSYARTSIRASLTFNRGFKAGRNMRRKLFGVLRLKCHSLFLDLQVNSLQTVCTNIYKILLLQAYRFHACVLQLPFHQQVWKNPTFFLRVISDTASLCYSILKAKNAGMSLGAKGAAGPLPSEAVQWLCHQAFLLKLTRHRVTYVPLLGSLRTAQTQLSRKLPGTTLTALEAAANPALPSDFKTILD
T1 sequence (O60832 whole entry partner): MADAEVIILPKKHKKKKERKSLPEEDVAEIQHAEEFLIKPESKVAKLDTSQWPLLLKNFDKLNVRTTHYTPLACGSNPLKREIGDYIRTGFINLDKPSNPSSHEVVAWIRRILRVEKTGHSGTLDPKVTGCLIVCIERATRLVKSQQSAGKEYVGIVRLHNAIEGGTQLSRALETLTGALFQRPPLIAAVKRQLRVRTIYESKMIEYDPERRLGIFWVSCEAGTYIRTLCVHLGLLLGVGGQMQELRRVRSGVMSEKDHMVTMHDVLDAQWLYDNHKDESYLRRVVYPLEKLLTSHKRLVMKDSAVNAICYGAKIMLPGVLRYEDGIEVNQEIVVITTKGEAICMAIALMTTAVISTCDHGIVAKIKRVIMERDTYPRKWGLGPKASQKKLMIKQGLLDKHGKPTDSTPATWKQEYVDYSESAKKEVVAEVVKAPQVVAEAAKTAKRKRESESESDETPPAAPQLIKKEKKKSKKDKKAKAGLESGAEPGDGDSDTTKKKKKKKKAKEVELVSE
T1 sequence (Q9NPE3 whole entry partner): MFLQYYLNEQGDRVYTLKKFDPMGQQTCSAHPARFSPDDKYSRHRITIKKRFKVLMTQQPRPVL
T1 sequence (Q9NX24 whole entry partner): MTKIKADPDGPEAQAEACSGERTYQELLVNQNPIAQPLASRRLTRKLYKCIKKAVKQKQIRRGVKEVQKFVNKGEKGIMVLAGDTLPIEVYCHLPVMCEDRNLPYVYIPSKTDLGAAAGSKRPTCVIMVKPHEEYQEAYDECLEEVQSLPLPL
T1 sequence (Q9NY12 whole entry partner): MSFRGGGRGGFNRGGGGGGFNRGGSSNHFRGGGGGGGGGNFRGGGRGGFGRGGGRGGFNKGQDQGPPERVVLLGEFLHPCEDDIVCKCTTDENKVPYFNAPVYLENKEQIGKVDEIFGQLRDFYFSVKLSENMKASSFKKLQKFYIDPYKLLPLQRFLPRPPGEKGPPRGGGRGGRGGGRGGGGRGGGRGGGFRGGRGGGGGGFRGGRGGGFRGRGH

As for `COc1ccc(Sc2ccc(C)cc2)c(C=C2SC(=O)NC2=O)c1` [Compound 104], the “residual activity of in vitro telomerase activity (in parenthesis)” value (“residual activity” for short) is “(61%)”.

The term IC50 denotes the concentration that gives 50% inhibition. A higher IC50 goes with lower potency. Compound `O=C1NC(=O)C(=Cc2ccc(C(=O)c3ccccc3)cc2)S1` [Compound 31] registered an IC50 of 15 µM.

`O=C1NC(=O)C(=Cc2sccc2Oc2ccccc2)S1` [Compound 59] came in with an IC50 of 2.1 µM.

`O=C1NC(=O)C(=Cc2ccccc2OC(F)(F)F)S1` [Compound 127] returned an IC50 of 5.7 µM.

For the compound `Cc1ccc(Sc2ccc(CO)cc2C=C2SC(=O)NC2=O)cc1` [Compound 96], the “residual activity” value is listed as “(62%)”.

In the case of `Cc1ccc([S+]([O-])c2ccc(-c3ccco3)cc2C=C2SC(=O)NC2=O)cc1` (stereo not drawn) [Compound 91], the “residual activity” value is recorded as “(61%)”.

Compound `O=C1NC(=O)C(=Cc2ccc(N(Cc3ccccc3)Cc3ccccc3)cc2)S1` [Compound 36] showed an IC50 of 5.1 µM.

On to `O=C1NC(=O)C(=Cc2cc(C(=O)c3ccc(Cl)cc3)c(Sc3ccc(Cl)cc3)s2)S1` [Compound 65], for which inhibition was half-maximal at 6.2 µM (IC50).

The compound `CCCN(CCC)c1ccc([N+](=O)[O-])cc1C=C1SC(=O)NC1=O` [Compound 123] displayed an IC50 of 6.9 µM.

For `O=C1NC(=O)C(=Cc2ccc(C(O)(c3ccccc3)c3ccccc3)cc2)S1` [Compound 33], the IC50 amounted to 5.5 µM. The IC50 values of the last two compounds are within 1.5-fold of each other.

`O=C1NC(=O)C(=Cc2cc(Br)sc2Sc2ccc(Cl)cc2)S1` [Compound 43] gave an IC50 of 2.6 µM.

Take `Cc1ccc(COc2ccc(Br)cc2C=C2SC(=O)NC2=O)cc1` [Compound 25]: 4.2 µM corresponded to half-maximal inhibition (IC50).

`O=C1NC(=O)C(=Cc2ccc(N(c3ccc(CO)cc3)c3ccc(CO)cc3)cc2)S1` [Compound 49]: the IC50 amounted to 4.4 µM.

Take `O=C1NC(=O)C(=Cc2cc([N+](=O)[O-])ccc2Oc2ccccc2)S1` [Compound 110]: the “residual activity” value is listed as “(53%)”.

Compound `Cc1ccc(COc2ccc(-c3ccccc3)cc2C=C2SC(=O)NC2=O)cc1` [Compound 47] had an IC50 of 4.1 µM.

Compound `O=C1NC(=O)C(=Cc2ccc(CN(c3ccccc3)c3ccccc3)cc2)S1` [Compound 35] displayed an IC50 of 3.9 µM.

Consider `O=C1NC(=O)C(=Cc2ccc(N(c3ccccc3)c3ccccc3)cc2)S1` [Compound 26], for which the IC50 amounted to 4.2 µM.

For `O=C1NC(=O)C(=Cc2cc([N+](=O)[O-])ccc2N2CCOCC2)S1` [Compound 125], half-maximal inhibition (IC50) required 1.6 µM.

Turning to `COc1cc(C=C2SC(=O)NC2=O)ccc1Sc1ccc(C)cc1` [Compound 138], the half-maximal inhibitory concentration (IC50) stood at 4.3 µM.

Compound `Cc1ccc(COc2ccc(C=C3SC(=O)NC3=O)cc2[N+](=O)[O-])cc1` [Compound 20] yielded an IC50 of 9 µM.

On to `Cc1ccc(Sc2ccc(Br)cc2C=C2SC(=O)NC2=O)cc1` [Compound 87], for which the IC50 is 6.9 µM. The IC50 values of the last two compounds are within 1.5-fold of each other.

`O=C1NC(=O)C(=Cc2cc([N+](=O)[O-])ccc2Sc2ccccc2Cl)S1` [Compound 71] showed an IC50 of 2.7 µM.

With `Cc1ccc(Sc2ccc(-c3ccco3)cc2C=C2SC(=O)NC2=O)cc1` [Compound 90], the IC50 was 3.7 µM. The IC50 values of the last two compounds are within 1.5-fold of each other.

For `COC(=O)c1cc(C=C2SC(=O)NC2=O)c(Sc2ccc(Cl)cc2)s1` [Compound 58], the “residual activity” value is reported as “(56%)”.

`O=C1NC(=O)C(=Cc2cc([N+](=O)[O-])ccc2Sc2ccc(Br)cc2)S1` [Compound 73] came in with an IC50 of 7 µM.

Take `O=C1NC(=O)C(=Cc2ccc(Sc3ccc(Br)cc3)c([N+](=O)[O-])c2)S1` [Compound 80]: the half-maximal inhibitory concentration (IC50) is 5.5 µM. This IC50 and that of the compound before are within 1.5-fold of each other.

`Cc1ccc(Sc2ccc(C#N)cc2C=C2SC(=O)NC2=O)cc1` [Compound 94] had an IC50 of 7.8 µM.

Regarding `O=C1NC(=O)C(=Cc2cc(Br)c(Sc3ccc(Cl)cc3)s2)S1` [Compound 63], half-maximal inhibition (IC50) required 6.5 µM.

Consider `O=C1NC(=O)C(=Cc2cccc(Oc3ccc(Cl)c(Cl)c3)c2)S1` [Compound 13], for which 5.9 µM corresponded to half-maximal inhibition (IC50).

On to `Cc1ccc(Sc2ccc(C(=O)OCc3ccccc3)cc2C=C2SC(=O)NC2=O)cc1` [Compound 139], for which 4.4 µM corresponded to half-maximal inhibition (IC50).

The compound `O=C1NC(=O)C(=Cc2cc([N+](=O)[O-])ccc2Sc2ccc(Cl)cc2)S1` [Compound 67] registered an IC50 of 1 µM. Against the preceding compound, the IC50 is about 4.4-fold lower.

Consider `Cc1ccc([S+]([O-])c2ccc(-c3cccs3)cc2C=C2SC(=O)NC2=O)cc1` (stereo not drawn) [Compound 93], for which the “residual activity” value is “(55%)”.

For the compound `Cc1ccc(Sc2ccc(C(F)(F)F)cc2C=C2SC(=O)NC2=O)cc1` [Compound 100], the concentration for half-maximal inhibition (IC50) amounted to 4.4 µM. This counts as single-digit micromolar.

As to `Cc1ccc(COc2ccc(-c3cccs3)cc2C=C2SC(=O)NC2=O)cc1` [Compound 48], inhibition was half-maximal at 1.6 µM (IC50).

The compound `COc1ccc(Sc2ccc([N+](=O)[O-])cc2C=C2SC(=O)NC2=O)cc1` [Compound 74] displayed an IC50 of 3.7 µM. This IC50 lies about 2.3-fold higher than the previous one.

For the compound `O=C1NC(=O)C(=Cc2cc(C(=O)Nc3ccccc3)sc2Sc2ccc(Cl)cc2)S1` [Compound 55], half-maximal inhibition (IC50) required 5.3 µM. This IC50 and that of the compound before are within 1.5-fold of each other.

In the case of `CCc1ccc(CCOc2ccc(CC3SC(=O)NC3=O)cc2)nc1` (stereo not drawn) [Pioglitazone, pioglitazone, reference compound], it took 83 µM to reach half-maximal inhibition (IC50).

Consider `O=C1NC(=O)C(=Cc2cc([N+](=O)[O-])ccc2SCCO)S1` [Compound 122], for which the IC50 stood at 7.7 µM.

Turning to `O=C1NC(=O)C(=Cc2cc([N+](=O)[O-])ccc2N2CCCCC2)S1` [Compound 124], the “residual activity” value is on record as “(54%)”.

Consider `O=C1NC(=O)C(=Cc2cc(Sc3ccc(Cl)cc3)c(Sc3ccc(Cl)cc3)s2)S1` [Compound 61], for which the IC50 worked out at 0.33 µM.

With `Cc1ccc(Sc2cc(C(F)(F)F)ccc2C=C2SC(=O)NC2=O)cc1` [Compound 101], the “residual activity” value is on record as “(62%)”.

On to `O=C1NC(=O)C(=Cc2cc([N+](=O)[O-])ccc2Sc2cccc(Cl)c2)S1` [Compound 70], for which the IC50 is 4.8 µM.

The compound `O=C1NC(=O)C(=Cc2cc([N+](=O)[O-])ccc2SCc2ccccc2)S1` [Compound 76] yielded an IC50 of 3.9 µM. The IC50 values of the last two compounds are within 1.5-fold of each other.

Compound `CSc1ccc(Sc2ccc([N+](=O)[O-])cc2C=C2SC(=O)NC2=O)cc1` [Compound 132] gave an IC50 of 2.6 µM.

`O=C1NC(=O)C(=Cc2cc(-c3ccccc3)sc2Sc2ccc(Cl)cc2)S1` [Compound 44]: the IC50 came out at 1.9 µM. This IC50 and that of the compound before are within 1.5-fold of each other.

Compound `O=C1NC(=O)C(=Cc2ccc(N(Cc3ccccc3)c3ccccc3)cc2)S1` [Compound 121] came in with an IC50 of 4 µM. Compared with the last compound, the IC50 is about 2.1-fold higher.

The compound `O=C1NC(=O)C(=Cc2cc([N+](=O)[O-])ccc2Sc2ccc3ccccc3c2)S1` [Compound 171] yielded an IC50 of 7.2 µM.

In turn, `Cc1c(C)c2c(c(C)c1O)CCC(C)(COc1ccc(CC3SC(=O)NC3=O)cc1)O2` (stereo not drawn) [Troglitazone, troglitazone, reference compound] showed an IC50 of 16 µM.

As for `COc1cc(O)ccc1C=C1SC(=O)NC1=O` [Compound 126], half-maximal inhibition (IC50) was put at 1.3 µM.

For `O=C1NC(=O)C(=Cc2ccc(Sc3ccc(Cl)cc3)s2)S1` [Compound 62], 7.8 µM corresponded to half-maximal inhibition (IC50).

Compound `O=C1NC(=O)C(=Cc2cc([N+](=O)[O-])ccc2Sc2ccc(Cl)c(Cl)c2)S1` [Compound 72] came in with an IC50 of 4.3 µM. Compared with the last compound, the IC50 is about 1.8-fold lower.

For the compound `Cc1ccc(COc2ccc([N+](=O)[O-])cc2C=C2SC(=O)NC2=O)cc1` [Compound 18], the IC50 was 11 µM.

On to `O=C1NC(=O)C(=Cc2cc([N+](=O)[O-])ccc2Sc2ccc(C(F)(F)F)cc2)S1` [Compound 115], for which the midpoint of inhibition, the IC50, lay at 2.7 µM. Against the preceding compound, the IC50 is about 4.1-fold lower.

In turn, `O=C1NC(=O)C(=Cc2cc(C(=O)O)sc2Sc2ccc(Cl)cc2)S1` [Compound 53] displayed an IC50 of 0.77 µM.

On to `O=C1NC(=O)/C(=C/c2c3ccccc3c(Sc3ccc(Cl)cc3)c3ccccc23)S1` [Compound 128], for which the IC50 came to 2.6 µM.

`Cc1ccc(Sc2ccc(C=C3SC(=O)NC3=O)cc2[N+](=O)[O-])cc1` [Compound 9] registered an IC50 of 8.3 µM.

Take `O=C1NC(=O)C(=Cc2cc([N+](=O)[O-])ccc2SCc2ccc(Cl)cc2)S1` [Compound 79]: the IC50 was 3.5 µM.

For `O=C1NC(=O)C(=Cc2ccc(Cc3ccccc3)cc2)S1` [Compound 32], the IC50 is 21 µM.

Consider `Cc1ccc(Sc2ccc(C=C3SC(=O)NC3=O)cc2Oc2ccccc2)cc1` [Compound 137], for which the IC50 turned out to be 5.5 µM. Compared with the last compound, the IC50 is about 3.8-fold lower.

As for `O=C1NC(=O)C(=Cc2cc(Sc3ccc(Cl)cc3)cs2)S1` [Compound 60], the IC50 was 4.5 µM.

With `COc1ccc(OCc2ccc(C)cc2)c(C=C2SC(=O)NC2=O)c1` [Compound 23], it took 14 µM to reach half-maximal inhibition (IC50). Compared with the last compound, the IC50 is about 3.1-fold higher.

As for `O=C1NC(=O)C(=Cc2cc([N+](=O)[O-])ccc2SC2CCCCC2)S1` [Compound 84], the IC50 was 3.9 µM.

Consider `Cc1ccc(COc2ccc(Cl)cc2C=C2SC(=O)NC2=O)cc1` [Compound 24], for which the IC50 is 5.3 µM.

Take `Cc1ccc(Sc2cccc(C(F)(F)F)c2C=C2SC(=O)NC2=O)cc1` [Compound 99]: the IC50 is 6.9 µM.

Take `O=C1NC(=O)C(=Cc2cc([N+](=O)[O-])ccc2OCc2ccc(Cl)c(Cl)c2)S1` [Compound 17]: 10 µM corresponded to half-maximal inhibition (IC50).

Consider `Cc1ccc(COc2cc(C=C3SC(=O)NC3=O)ccc2[N+](=O)[O-])cc1` [Compound 19], for which the IC50 worked out at 70 µM. Compared with the last compound, the IC50 is about 7-fold higher.

Consider `O=C1NC(=O)/C(=C/c2cc(Br)c([S+]([O-])c3ccc(Cl)cc3)s2)S1` (stereo not drawn) [Compound 64], for which 9.7 µM corresponded to half-maximal inhibition (IC50).

For the compound `O=C1NC(=O)C(=Cc2cc([N+](=O)[O-])ccc2Sc2ccc(C(=O)O)cc2)S1` [Compound 129], the IC50 amounted to 8.1 µM.

Compound `Cc1ccc(Sc2ccc(Cl)cc2C=C2SC(=O)NC2=O)cc1` [Compound 106] yielded an IC50 of 4.5 µM. This IC50 lies about 1.8-fold lower than the previous one.

The record behind these values is patent US6518268B1, “Telomerase inhibitors and methods of their use” (Geron Corporation, priority 1999, dated 2003).
